Laboratory results: patent US20230151432A1, “KIF18A INHIBITORS FOR TREATMENT OF NEOPLASTIC DISEASES” (AMGEN INC., priority 2020, published 2023)

How the values were obtained:
[1] = system: human OVCAR-8 HGSOC xenograft model (TP53MUT, BRCA1silenced); assay: OVCAR-8 xenograft efficacy study, oral dosing (Example 4); type: in vivo, mouse
Description: Female athymic nude mice were injected with 5×10^6 OVCAR-8 cells in 0.1 mL subcutaneously in the right flank. […] Tumor volume and animal body weight measurements were determined twice per week (study start day 25, study end day 47). Tumor measurements, formulas, and regression analysis as described above for FIGS. 5A-5B. Data was plotted using GraphPad Prism software (V7.0.4), tumor volume and body weight data are expressed as means plus or minus standard error of the mean and plotted as a function of time. Statistical significance of observed differences between growth curves were calculated using SLACR package (v.1.0.3).

[2] = system: normal human foreskin fibroblast cells; assay: Arrayscan VTi multiplex imaging assays; type: cell-based; settings: 48 hours, top 10 μM (C11) or 1 μM (C9); for total object count and BrdU incorporation: 9-point range
Description: Imaging assays were also carried out to determine the effects of KIF18A inhibitor treatment on normal somatic cells. Arrayscan VTi multiplex imaging assays were carried out with human FSF cells as described below. Briefly, normal human foreskin fibroblast cells were seeded at 6000 cells per well in 96-well imaging plates (Corning) and cultured overnight. The next day, two replicate 96-well plates were treated with DMSO or panel of test agents over a 9-point concentration range using 3-fold dilution with top concentration of 10 μM (KIF18A inhibitor Compound C11, nutlin-3a), 1 μM (KIF18A inhibitor Compound C9, BI-2536, ispinesib, paclitaxel), or 5 μM (palbociclib, GSK923295). After 48 hours of treatment, one plate was pulsed with BrdU (Invitrogen) for 3 hours before fixation. Both 96-well plates fixed with 4% formaldehyde (Thermo Scientific), washed twice with wash buffer [PBS, 1% BSA (Thermo Fisher), 0.2% Triton X-100 (Sigma)]. The first 96-well plate was processed for BrdU epitope detection using acid wash, blocked overnight at 4° C. in wash buffer supplemented with horse serum (4 drops serum per 10 mL) (Vector Labs) and stained with anti-BrdU-AlexaFluor-647 (B35140, Invitrogen, mouse, 3 μg per mL) and anti-p21 (12D1) (2947, Cell Signaling, rabbit, 1:400) antibodies for two hours at room temperature. Cells were washed twice in wash buffer and stained with secondary antibody [anti-rabbit-IgG-AlexaFluor-488 (A1 1034, Invitrogen, 1:2000)] and incubated for one hour at room temperature. The second 96-well plate was blocked overnight at 4° C. in wash buffer supplemented with horse serum (4 drops serum per 10 mL) (Vector Labs) and stained with anti-cl-PARP (214/215) (44-6986, Invitrogen, rabbit, 1:1500) and anti-γH2AX (05-636, Millipore, mouse, 1:1000) antibodies for two hours at room temperature. Cells were washed twice in wash buffer and stained with secondary antibodies [anti-rabbit-IgG-AlexaFluor-647 (A21245, Invitrogen, 1:2000), anti-mouse-IgG-AlexaFluor-488 (A1 1029, Invitrogen, 1:2000)] and incubated for one hour at room temperature. Both 96-well plates were washed twice and counterstained with Hoeschst 33342 (Invitrogen) nuclear dye. Imaging data was collected by widefield imaging on ArrayScan VTi HCS Reader (Thermo Scientific) from 64 fields per well using 20×objective. Valid nuclear object counts were determined for each well as well as the percentage of BrdU, p21, cl-PARP, and γH2AX positive objects for each test agent concentration and DMSO control. Concentration-response heatmaps were generated using GraphPad Prism software (V7.0.4).

[3] = system: panel of cell lines (HCC-1806, HCC-1937, BT-549, MDA-MB-157, MCF-7, CAL-51, MDA-MB-453, ZR-75-1, OVCAR-3, OVCAR-5); assay: 96 h cell growth assay (Example 19); type: cell-based; settings: Homo sapiens, KIF18A inhibitor-sensitive cells (e.g., OVCAR-3 and BT-549), read-out: Mean Count EC50
Description: KIF18A inhibitor cancer cell line sensitivity profiles were determined for KIF18A inhibitor Compounds C9 and C11. Cells of various cancer cell lines were treated with DMSO or increasing concentrations of C9 or C11 for 96 h. The concentration-response profiles of some cancer cell lines (including, e.g., BT-549, OVCAR-3) for C11 were similar. […] Cancer cell lines CAL-51, MDA-MG-453 and OVCAR-5 were insensitive to C9 and C11.
Cell growth assay. A panel of cell lines (HCC-1806, HCC-1937, BT-549, MDA-MB-157, MCF-7, CAL-51, MDA-MB-453, ZR-75-1, OVCAR-3, OVCAR-5) were seeded in 96-well plate at densities optimized for 96 h cell growth assay. The next day, cells were treated with DMSO or one of the following compounds: KIF18A Inhibitor Compounds C9 and C11, or palbociclib, with top concentration of 6 μM (19-point concentration range) using staggered dose method. After 96 h, cells were fixed, stained, imaged, and analyzed as described above. Valid nuclear object counts were determined for each well and Count POC value was computed using the following formula [Count POC=(valid nuclear object count in treated well)+(valid nuclear object count in DMSO treated wells)×100]. Concentration-response curve-fitting was performed by 4-parameter non-linear regression equation using GraphPad Prism 7.05. Mean Count EC50 value was computed for each cell line from two independent experiments run in duplicate. […]

| SMILES | tumor growth inhibition (TGI) ([1]; 10 mg/kg PO QD, day 25 to day 47) [%] | tumor-free animals ([1]; 30 mg/kg PO QD) | tumor regression ([1]; 30 mg/kg PO QD, day 25 to day 47) [%] | tumor-free animals ([1]; 100 mg/kg PO QD) | tumor regression ([1]; 100 mg/kg PO QD, day 25 to day 47) [%] | total object count and BrdU incorporation [2] | cell cycle arrest measured by the induction of p21 protein expression [2] | induction of DNA damage measured by increase in γHH2X expression [2] | induction of apoptosis measured by cl-PARP expression [2] | EC50 [3] [nM] |
| --- | --- | --- | --- | --- | --- | --- | --- | --- | --- | --- |
| Cc1cc(NC(=O)c2ccc(NS(=O)(=O)CCO)cc2N2CCC3(CC2)CC3)nc(N2CCC(F)(F)CC2)n1 [Compound C14, N-(2-(4,4-Difluoropiperidin-1-yl)-6-methylpyrimidin-4-yl)-4-((2-hydroxyethyl)sulfonamido)-2-(6-azaspiro[2.5]octan-6-yl)benzamide] | 57 | 4 of 10 | 86 | 8 of 10 | 98 |  |  |  |  |  |
| CC(C)(CO)Nc1ccc(C(=O)Nc2cccc(S(=O)(=O)C3CCCC3)c2)c(N2CCC3(CC2)CC3)n1 [Compound C11, N-(3-(cyclopentylsulfonyl)phenyl)-6-((1-hydroxy-2-methylpropan-2-yl)amino)-2-(6-azaspiro[2.5]octan-6-yl)nicotinamide] |  |  |  |  |  | behaved as vehicle control treated cells | no cell cycle arrest | no | no induction of apoptosis | 47 |
| CC(C)(C)NS(=O)(=O)c1cccc(NC(=O)c2ccc(S(=O)(=O)NC(C)(C)C)cc2N2CCC3(CC2)CC3)c1 [Compound C9, 4-(N-(tert-butyl)sulfamoyl)-N-(3-(N-(tert-butyl)sulfamoyl)phenyl)-2-(6-azaspiro[2.5]octan-6-yl)benzamide] |  |  |  |  |  | behaved as vehicle control treated cells | no cell cycle arrest | no | no induction of apoptosis | 21 |
